{"source": "patent US11474105B2", "about": "“Methods and compositions for SIRT1 expression as a marker for endometriosis and subfertility” (The University of North Carolina at Chapel Hill, priority 2016, dated 2022)", "test_system": "BCL6 positive individuals", "experiment": "IVF ovum transfer or frozen embryo transfer after pretreatment", "type": "in vivo", "settings": "pretreatment for two months prior to transfer, compared to no treatment, p<0.0001", "description": "In vitro fertilized (IVF) ovum transfer or frozen embryo transfer was carried out in BCL6 positive individuals. There were three treatment groups: no treatment prior to transfer, laparoscopy with treatment of endometriosis prior to transfer and GnRH agonist suppression (Lupron) pretreatment for two months prior to transfer.", "data": [{"compound": "CCNC(=O)[C@@H]1CCCN1C(=O)[C@H](CCCNC(=N)N)NC(=O)[C@H](CC(C)C)NC(=O)[C@@H](CC(C)C)NC(=O)[C@H](Cc1ccc(O)cc1)NC(=O)[C@H](CO)NC(=O)[C@H](Cc1c[nH]c2ccccc12)NC(=O)[C@H](Cc1c[nH]cn1)NC(=O)[C@@H]1CCC(=O)N1", "note": "[Lupron, leuprolide acetate]", "values": [{"measurement": "time to pregnancy", "value": "significantly better"}, {"measurement": "transplantation rate", "value": "significantly better"}]}]}
